Molecules are shown by their SMILES. Starred links: 1 amine or outer side, 2 acyl side, 3 side chain; linkers in the order of their positions; H or OH if unused. Non-standard residues stand in square brackets, D forms with d. Residues, ends and D or L forms follow the SMILES beside them. Ala(4-thiazolyl) = N[C@@H](Cc1cscn1)C(=O)O; Phe(4-Cl) = N[C@@H](Cc1ccc(Cl)cc1)C(=O)O; X1 = CCC(CC)C[C@@H](C(=O)[*:2])N(C)[*:1]; Phe(4-F) = N[C@@H](Cc1ccc(F)cc1)C(=O)O; NMeF = CN[C@@H](Cc1ccccc1)C(=O)O; NMeL = CN[C@@H](CC(C)C)C(=O)O; Ahp(2) = CCCCC[C@H](N)C(=O)O; Tle = CC(C)(C)[C@H](N)C(=O)O; hSer = N[C@@H](CCO)C(=O)O; NMeA = CN[C@@H](C)C(=O)O; dNMeA = CN[C@H](C)C(=O)O

The target of data set [1] is T1, Protein Mdm4 (Homo sapiens, UniProt O15151).
T1 sequence (O15151 whole entry): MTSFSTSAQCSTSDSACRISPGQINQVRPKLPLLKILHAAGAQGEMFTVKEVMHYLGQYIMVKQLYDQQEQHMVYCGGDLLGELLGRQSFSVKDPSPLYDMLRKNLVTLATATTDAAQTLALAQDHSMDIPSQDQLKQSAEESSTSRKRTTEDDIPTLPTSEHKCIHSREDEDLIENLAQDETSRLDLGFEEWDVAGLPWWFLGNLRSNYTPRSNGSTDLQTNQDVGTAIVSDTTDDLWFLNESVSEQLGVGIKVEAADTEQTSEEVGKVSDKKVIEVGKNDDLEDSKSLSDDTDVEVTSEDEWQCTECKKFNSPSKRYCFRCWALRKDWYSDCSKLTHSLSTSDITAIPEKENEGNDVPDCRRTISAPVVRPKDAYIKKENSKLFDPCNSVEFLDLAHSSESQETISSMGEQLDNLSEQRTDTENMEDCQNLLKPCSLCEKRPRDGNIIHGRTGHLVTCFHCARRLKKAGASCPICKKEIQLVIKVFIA
Description: Inhibition of N-terminal biotin-his-tagged MDMX (24 to 108 residues)(unknown origin) binding to p53 incubated for 1 hr by Alphascreen assay.

A short description of data set [2]: Apparent permeability across apical to basolateral side in MDCK-II cells at 10 uM incubated for 2 hrs by LC/MS/MS analysis. In kind it is ADME, cell-based, Canis lupus familiaris. The following applies: dog.

In the case of `CCCCC[C@@H]1NC(=O)[C@H](CC(C)C)N(C)C(=O)[C@H](Cc2ccc(F)cc2)NC(=O)[C@H](C)N(C)C(=O)[C@@H](C)N(C)C(=O)[C@H](Cc2cscn2)NC(=O)[C@H](C)N(C)C(=O)[C@H](CCOC)NC(=O)[C@H]2CCCN2C(=O)[C@H](CC(CC)CC)N(C)C1=O` (cyclo([Ahp(2)][X1][dP][hSer](Me)[NMeA][Ala(4-thiazolyl)][dNMeA][NMeA][Phe(4-F)][NMeL])), the IC50 (commonly the point on the concentration scale where inhibition reaches its midpoint) in data set [1] stood at 70 nM. Moreover, in data set [2], the Papp A→B (usually how fast a substance crosses the layer from the apical side) at 2 h, 10 µM worked out at 0.8 ×10⁻⁶ cm/s.
`COCC[C@@H]1NC(=O)[C@H]2CCCN2C(=O)[C@H](Cc2ccccc2)N(C)C(=O)[C@H](Cc2ccc(Cl)cc2)NC(=O)[C@H](C(C)(C)C)NC(=O)[C@H](Cc2ccc(F)cc2)NC(=O)[C@H](C)N(C)C(=O)[C@@H](C)N(C)C(=O)[C@H](Cc2cscn2)NC(=O)[C@H](C)N(C)C1=O` (cyclo([Ala(4-thiazolyl)][dNMeA][NMeA][Phe(4-F)][Tle][Phe(4-Cl)][NMeF][dP][hSer](Me)[NMeA])): the IC50 in data set [1] is 30 nM. The Papp A→B at 2 h, 10 µM in data set [2] was 0.07 ×10⁻⁶ cm/s.
